Assay results taken from US20160158375A1, “DIPEPTIDE LINKED MEDICINAL AGENTS” (Indiana University Research and Technology Corporation, priority 2010, published 2016).
Like-named read-outs stand apart in the source and are kept apart here. Square brackets hold non-standard residues; d marks the D form. Peptide text beside a SMILES is read from it. Sar = CNCC(=O)O

Columns and labels:
[1] = Rate of model dipeptide cleavage in PBS (HPLC / LC-MS); conditions: for Relative peak area (%), HPLC peak a / Relative peak area (%), HPLC peak b: PBS, 37° C.; for Relative peak area (%), HPLC peak a: peak a molecular weight 702; for Relative peak area (%), HPLC peak b: peak b molecular weight 902
Description: The solution was incubated at 37° C. […] The dipeptide cleavage was quenched by lowering the pH with an equal volume of 0.1% TFA. The rate of cleavage was qualitatively monitored by LC-MS and quantitatively studied by HPLC. The retention time and relative peak area for the prodrug and the parent model peptide were quantified using Peak Simple Chromatography software.
The flow rate was 1 ml/min.
The concentrations of the prodrugs and the model parent peptide were determined by their respective peak areas, ‘a’ and ‘b’ for each of the different collection times (Table 1). […] The slope of this plot provides the rate constant 1′.

[2] = plasma; for Relative peak area (%), HPLC peak a: peak a molecular weight 702; for Relative peak area (%), HPLC peak b: peak b molecular weight 902

Which half-life at 1 mg/ml ([1]; buffer) does the source give for `C[C@@H](O)[C@H](NC(=O)CNC(=O)[C@H](CCCNC(=N)N)NC(=O)[C@H](CO)NC(=O)[C@H](Cc1c[nH]cn1)NC(=O)CN(C)C(=O)C(C)(C)N)C(=O)N[C@@H](Cc1ccccc1)C(N)=O` [Compound 24] here?
The half-life at 1 mg/ml was 9 min.

For `C[C@@H](O)[C@H](NC(=O)CNC(=O)[C@H](CCCNC(=N)N)NC(=O)[C@H](CO)NC(=O)[C@H](Cc1c[nH]cn1)NC(=O)CN(C)C(=O)[C@@H](N)CCCCN)C(=O)N[C@@H](Cc1ccccc1)C(N)=O` [peptide A, Lys-Sar-HSRGTF-NH2] (H-K[Sar]HSRGTF-NH2; N-terminus assumed), which “Relative peak area (%), HPLC peak a” value ([1]; 5 h) is on record?
Its value is 26.5%.

And the “Relative peak area (%), HPLC peak b” value ([1]; 5 h)?
The value was 73.5%.

What about the “Relative peak area (%), HPLC peak a” value ([1]; 8 h) of the same compound?
The value was 28.9%.

What about the “Relative peak area (%), HPLC peak b” value ([1]; 8 h) of the same compound?
The value was 71.1%.

And the “Relative peak area (%), HPLC peak a” value ([1]; 24 h)?
Its value is 28.8%.

What about the “Relative peak area (%), HPLC peak b” value ([1]; 24 h) of the same compound?
Its value is 71.2%.

What about the “Relative peak area (%), HPLC peak a” value ([1]; 31 h) of the same compound?
The value was 77.7%.

What about the “Relative peak area (%), HPLC peak b” value ([1]; 31 h) of the same compound?
The value was 22.3%.

And the “Relative peak area (%), HPLC peak a” value ([1]; 47 h)?
The value was 90.0%.

What about the “Relative peak area (%), HPLC peak b” value ([1]; 47 h) of the same compound?
Its value is 10.0%.

For `C[C@H](O)[C@@H](NC(=O)CNC(=O)[C@@H](CCCNC(=N)N)NC(=O)[C@H](NC(=O)[C@@H](Cc1c[nH]cn1)NC(=O)CN(C)C(=O)[C@@H](N)CCCCN)[C@H](C)O)C(=O)N[C@H](Cc1ccccc1)C(N)=O` [peptide B, Lys-Sar-dHdTdRGdTdF-NH2] (H-K[Sar][dH][dT][dR]G[dT][dF]-NH2), which “Relative peak area (%), HPLC peak a” value ([2]; 5 h) is on record?
The value was 17.0%.

What about the “Relative peak area (%), HPLC peak b” value ([2]; 5 h) of the same compound?
The value was 83.0%.

What about the “Relative peak area (%), HPLC peak a” value ([2]; 11 h) of the same compound?
Its value is 29.2%.

And the “Relative peak area (%), HPLC peak b” value ([2]; 11 h)?
Its value is 70.8%.

And the “Relative peak area (%), HPLC peak a” value ([2]; 24 h)?
Its value is 60.2%.

And the “Relative peak area (%), HPLC peak b” value ([2]; 24 h)?
The value was 39.8%.

And the “Relative peak area (%), HPLC peak a” value ([2]; 32 h)?
Its value is 54.0%.

What about the “Relative peak area (%), HPLC peak b” value ([2]; 32 h) of the same compound?
Its value is 46.0%.

What about the “Relative peak area (%), HPLC peak a” value ([2]; 48 h) of the same compound?
The value was 27.6%.

And the “Relative peak area (%), HPLC peak b” value ([2]; 48 h)?
Its value is 72.4%.
